Consider 2 substances from ChEMBL document CHEMBL1122772, “Bis(3,5-diisopropylsalicylato)copper(II), a potent radioprotectant with superoxide dismutase mimetic activity” (J Med Chem, 1984).

Common to all, as to assay type: functional, organism-based
The species named for experiment [1] is Mus musculus. Nature of the experiment: Rate of diffusion-controlled disproportionation of superoxide.
The species entered for experiment [2] is Mus musculus. Briefly: Percent reactivity in disproportionating diffusion controlled disproportionation of superoxide.
For experiment [3], the species on record is Mus musculus. Briefly: Concentration required for 50% inhibition of superoxide reduction of nitroblue tetrazolium.

In turn, “bis(2-Hydroxy-3,5-diisopropyl-benzoic acid)copper(II)(bis(3,5-diisopropylsalicylato)copper(II))” displayed a Rate in the experiment listed under Mus musculus [1] of 2e+09 M⁻¹ s⁻¹. Further, the Reactivity in the experiment filed under Mus musculus [2] stood at 0.7%. Further, in the experiment filed under Mus musculus [3], the Concentration was 2.9 µM.

Consider bis(2-Hydroxy-benzoic acid)copper(II), for which the Rate in the experiment listed under Mus musculus [1] is 1.6e+09 M⁻¹ s⁻¹. In the experiment listed under Mus musculus [2], this substance registered a Reactivity of 0.65%. In addition, the Concentration in the experiment listed under Mus musculus [3] came to 4.6 µM.
